From patent US20260250318A1, “COMPOSITIONS AND METHODS FOR CROSSING THE BLOOD BRAIN BARRIER” (VOYAGER THERAPEUTICS, INC., priority 2022, published 2026)

Assays:
Conditions in all cases: synthetic library passage 3, intravenous, relative to wild-type AAV9
brain [1] = assay: NGS fold enrichment of synthetic library (passage 3) in BALB/c mice, first cross-species screen; assay type: in vivo
Experimental: (§1) After creation of the synthetic library with the sub-selected variants, the synthetic library was screened (passage 3) in two NHPs (2-4 years of age) and two strains of mice, BALB/c (n=3, 6-8 weeks of age) and C57Bl/6 mice (n=3, 6-8 weeks of age), in a first cross-species evolution screen. The animals were injected intravenously with the synthetic library. After a period in vivo, (e.g., 28-days) RNA was extracted from nervous tissue, e.g., brain, spinal cord, and DRG of the NHPs and the brains of mice. Following RNA recovery and RT-PCR amplification, a systematic NGS enrichment analysis was performed, and the peptides comprised within the variants were identified and the capsid enrichment ratio for each variant compared to the wild-type AAV9 control was calculated (fold enrichment relative to wild-type AAV9) (Table 9). […] All animals were dosed intravenously at […] across the screen.

brain [2] = assay: NGS fold enrichment of synthetic library (passage 3) in C57Bl/6 mice, first cross-species screen; assay type: in vivo
Experimental: as §1

[3] = system: brain, spinal cord, and DRG of the NHPs; assay: NGS fold enrichment of synthetic library (passage 3) in NHPs, first cross-species screen; assay type: in vivo, cynomolgus macaques (Macaca fascicularis)
Experimental: as §1

[4] = RNA from brain of BALB/c mice, NGS
[5] = RNA from brain of C57Bl/6 mice, NGS
[6] = RNA from spinal cord of NHPs, NGS

| Sequence | Fold enrichment over AAV9 in the brain of Mice (BALB/c) (brain [1]; [4]) | Fold enrichment over AAV9 in the brain of Mice (C57Bl/6) (brain [2]; [5]) | Fold enrichment over AAV9 in the brain of NHPs ([3]; RNA from brain of NHPs, NGS) | Fold enrichment over AAV9 in the spinal cord of NHPs [3, 6] | Fold enrichment over AAV9 in the brain of Mice (BALB/c) (brain [1]; RNA NGS, brain of BALB/c mice) | Fold enrichment over AAV9 in the brain of Mice (C57Bl/6) (brain [2]; RNA NGS, brain of C57Bl/6 mice) | Fold enrichment over AAV9 in the brain of NHPs ([3]; RNA NGS, brain of NHPs) | Fold enrichment over AAV9 in the spinal cord of NHPs ([3]; RNA NGS, spinal cord of NHPs) |
| --- | --- | --- | --- | --- | --- | --- | --- | --- |
| GCTTRLNSGQNQQT | 0.618 fold | 0.184 fold | 1.276 fold | 0.000 fold | – | – | – | – |
| GDAGVRSSGQNQQT | – | – | – | – | 1.193 fold | 1.033 fold | 2.068 fold | 3.918 fold |
| GDMTRSSSGQNQQT | – | – | – | – | 1.038 fold | 1.145 fold | 1.075 fold | 0.802 fold |
| GDSSLRHSGQNQQT | – | – | – | – | 0.412 fold | 0.662 fold | 2.194 fold | 0.000 fold |
| GDSSSRISGQNQQT | 0.348 fold | 0.916 fold | 1.151 fold | 3.787 fold | – | – | – | – |
| GEKAVTSSGQNQQT | 0.327 fold | 0.558 fold | 1.402 fold | 0.998 fold | – | – | – | – |
| GERAFPTSGQNQQT | – | – | – | – | 0.362 fold | 0.972 fold | 1.775 fold | 6.515 fold |
| GERHTVLSGQNQQT | – | – | – | – | 0.607 fold | 1.027 fold | 3.289 fold | 3.008 fold |
| GESRAVLSGQNQQT | – | – | – | – | 0.368 fold | 0.789 fold | 1.476 fold | 0.938 fold |
| GEVSRVLSGQNQQT | 0.440 fold | 1.150 fold | 1.318 fold | 0.437 fold | – | – | – | – |
| GFAHQASSGQNQQT | – | – | – | – | 1.080 fold | 1.638 fold | 1.587 fold | 1.852 fold |
| GFIFPKVSGQNQQT | 0.692 fold | 1.764 fold | 1.237 fold | 0.000 fold | – | – | – | – |
| GFMSYKGSGQNQQT | – | – | – | – | 0.569 fold | 1.808 fold | 2.865 fold | 0.209 fold |
| GFNGSPSSGQNQQT | – | – | – | – | 0.924 fold | 2.338 fold | 2.609 fold | 12.197 fold |
| GFSSAVHSGQNQQT | – | – | – | – | 0.210 fold | 0.218 fold | 1.502 fold | 1.234 fold |
| GGAGSAHSGQNQQT | – | – | – | – | 1.092 fold | 0.474 fold | 1.003 fold | 6.108 fold |
| GGGDLGRSSQNQQT | – | – | – | – | 0.539 fold | 0.916 fold | 3.036 fold | 4.830 fold |
| GGGPMAGSGQNQQT | – | – | – | – | 0.372 fold | 1.049 fold | 1.735 fold | 2.815 fold |
| GGGTKMDSGQNQQT | – | – | – | – | 0.297 fold | 0.733 fold | 3.034 fold | 0.000 fold |

| Sequence | Fold enrichment over AAV9 in the brain of Mice (BALB/c) (brain [1]; [4]) | Fold enrichment over AAV9 in the brain of Mice (C57Bl/6) (brain [2]; [5]) | Fold enrichment over AAV9 in the brain of NHPs ([3]; RNA from brain of NHPs, NGS) | Fold enrichment over AAV9 in the spinal cord of NHPs [3, 6] | Fold enrichment over AAV9 in the brain of Mice (BALB/c) (brain [1]; RNA NGS, brain of BALB/c mice) | Fold enrichment over AAV9 in the brain of Mice (C57Bl/6) (brain [2]; RNA NGS, brain of C57Bl/6 mice) | Fold enrichment over AAV9 in the brain of NHPs ([3]; RNA NGS, brain of NHPs) | Fold enrichment over AAV9 in the spinal cord of NHPs ([3]; RNA NGS, spinal cord of NHPs) |
| --- | --- | --- | --- | --- | --- | --- | --- | --- |
| GGITWTDSGQNQQT | – | – | – | – | 0.468 fold | 1.472 fold | 1.462 fold | 4.535 fold |
| GGLGSMSSGQNQQT | – | – | – | – | 0.822 fold | 1.802 fold | 2.812 fold | 1.405 fold |
| GGLSHVMSGQNQQT | – | – | – | – | 0.378 fold | 0.885 fold | 1.875 fold | 0.403 fold |
| GGQVAPSSGQNQQT | – | – | – | – | 0.709 fold | 1.433 fold | 2.581 fold | 2.427 fold |
| GGRIVSLSGQNQQT | – | – | – | – | 0.847 fold | 1.161 fold | 1.766 fold | 4.936 fold |
| GGRNGHTVGQNQQT | – | – | – | – | 1.003 fold | 1.105 fold | 2.965 fold | 3.732 fold |
| GGSHTYGGGQNQQT | 0.730 fold | 0.982 fold | 1.241 fold | 13.065 fold | – | – | – | – |
| GGTRVVDSGQNQQT | – | – | – | – | 0.370 fold | 0.676 fold | 1.676 fold | 9.735 fold |
| GGVLVGGSGQNQQT | – | – | – | – | 0.688 fold | 1.527 fold | 2.778 fold | 0.178 fold |
| GGYHSQTSGQNQQT | – | – | – | – | 1.525 fold | 1.740 fold | 1.978 fold | 2.642 fold |
| GHAGSTGSGQNQQT | 1.233 fold | 1.332 fold | 1.352 fold | 2.829 fold | – | – | – | – |
| GHAHYQASGQNQQT | 0.745 fold | 0.803 fold | 1.377 fold | 7.299 fold | – | – | – | – |
| GHHTTVQSGQNQQT | – | – | – | – | 0.755 fold | 0.851 fold | 2.177 fold | 6.245 fold |
| GHLTMHNSGQNHQT | – | – | – | – | 0.586 fold | 1.030 fold | 1.938 fold | 1.798 fold |
| GHMKGVTSGQNQQT | – | – | – | – | 0.413 fold | 0.807 fold | 1.081 fold | 2.814 fold |
| GHPSPHVSGQNQQT | – | – | – | – | 0.488 fold | 0.551 fold | 1.713 fold | 0.416 fold |
| GHSFVNRSGQNQQT | – | – | – | – | 0.756 fold | 1.305 fold | 2.447 fold | 11.148 fold |
| GHTLTLSSGQNQQT | – | – | – | – | 0.606 fold | 0.648 fold | 3.405 fold | 5.648 fold |
| GIARTTISGQNQQT | – | – | – | – | 0.330 fold | 0.819 fold | 1.078 fold | 1.783 fold |
